# According to patent US9266890B2, “Pyrimido-diazepinone kinase scaffold compounds and methods of treating disorders” (Dana-Farber Cancer Institute, Inc., priority 2009, dated 2016):
# Molecular target: Mps1 (TTK) (Homo sapiens (Human), UniProt P33981)
# Test: Mps1 (TTK) Cellular Assay - Mitotic Escape Assay
# Format: cell-based
# Conditions: Hela cells arrested with thymidine then nocodazole (0.33 μM); compound 0.25-10 uM for 2 hrs
# Procedure: FIG. 1. […] Hela cells were arrested in mitosis using the following protocol. Cells were treated with thymidine (2.5 mM) for 24 hours. Cells were released into medium containing nocodazole (0.33 μM). After 16 hrs. cells were treated with I-10 a range of concentrations (0.25, 0.5, 1, 2, 5 and 10 uM) shown above for 2 hrs. Cells were harvested and the levels of cyclin B (a marker for mitosis) were determined by immunoblot. High cyclin B levels indicated mitotic cells, while low cyclin B levels indicate cells have exited nocodazole-induced mitotic arrest.
# Hela (or U2OS cells) were plated at roughly 30-35% cell density. After 24 hours the medium* was removed and fresh medium supplemented with 2.5 mM thymidine was added to arrest cells at the G1/S transition. After 24 hours in thymidine block the medium was removed, the cells were washed 3× with PBS and replaced with medium supplemented with 330 nM nocodazole (Noc). The cells were incubated with nocodazole for 16-18 hours to produce a mitotic arrest. […] After 2 hours, the cells were harvested, lysed in RIPA buffer, and the levels of cyclin B or phosphorylated Histone 3 (Ser10) determined by western blotting. Alternatively, cells were treated on coverslips, fixed, and phosphorylated Histone 3 levels determined by immunofluorescence. […]
# Chain of Mps1 (TTK) (P33981 whole entry): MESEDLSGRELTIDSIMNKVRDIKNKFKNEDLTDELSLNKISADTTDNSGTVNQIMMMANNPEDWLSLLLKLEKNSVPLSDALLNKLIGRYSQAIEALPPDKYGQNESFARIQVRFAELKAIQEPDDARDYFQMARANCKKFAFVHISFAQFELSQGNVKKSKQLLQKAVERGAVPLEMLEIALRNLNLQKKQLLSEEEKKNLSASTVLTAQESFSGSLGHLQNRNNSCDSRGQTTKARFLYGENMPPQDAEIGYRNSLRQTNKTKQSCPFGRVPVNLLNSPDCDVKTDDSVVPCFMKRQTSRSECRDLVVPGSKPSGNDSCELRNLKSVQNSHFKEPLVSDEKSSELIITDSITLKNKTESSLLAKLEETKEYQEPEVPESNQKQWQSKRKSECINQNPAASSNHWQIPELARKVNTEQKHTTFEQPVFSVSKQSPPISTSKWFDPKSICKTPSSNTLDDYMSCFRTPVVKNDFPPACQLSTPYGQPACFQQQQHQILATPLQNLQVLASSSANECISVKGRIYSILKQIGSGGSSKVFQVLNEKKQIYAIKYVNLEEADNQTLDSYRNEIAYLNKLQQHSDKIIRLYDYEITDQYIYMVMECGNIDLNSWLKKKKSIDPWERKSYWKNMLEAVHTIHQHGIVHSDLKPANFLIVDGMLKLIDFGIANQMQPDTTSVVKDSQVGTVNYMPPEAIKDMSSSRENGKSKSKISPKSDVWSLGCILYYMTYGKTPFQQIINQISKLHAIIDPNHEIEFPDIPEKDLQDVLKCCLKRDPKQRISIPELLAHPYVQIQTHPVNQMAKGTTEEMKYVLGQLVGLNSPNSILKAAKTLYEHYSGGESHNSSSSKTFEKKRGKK
row,SMILES,escape from mitosis (cyclin B levels by immunoblot)
1,CCOc1cc(N2CCC(O)CC2)ccc1Nc1ncc2c(n1)N(C1CCCC1)CCC(=O)N2C [Compound I-10],induces escape from mitosis

# Molecular target: Plk1 (Homo sapiens (Human), UniProt P53350)
# Test: Plk1 Cellular Assay - Mitotic Arrest Assay
# Format: cell-based
# Conditions: Hela cells, immunofluorescence microscopy, 24 hours post-treatment
# Procedure: FIG. 2. […] Using immunofluorescence microscopy the cells were located by their DNA stain (Hoechst) and were then scored for phospho H3 positivity. Cells that are arrested in mitosis are phospho H3 positive.
# Hela cells were plated at roughly 80% cell density on poly-lysine coated glass coverslips. After 24 hours the medium* was removed and fresh medium supplemented with test compounds was added. Twenty-four hours post-treatment the medium was removed, the coverslips were washed once with phosphate-buffered saline (PBS), pH 7.4 and the cells fixed for 10 minutes at room temperature using the following fixative solution: 100 mM K-Pipes, pH 6.8, 10 mM EGTA, 1 mM MgCl2, 0.2% Triton X-100, 3% formaldehyde. The coverslips were washed 3× with Tris-buffered saline solution (50 mM Tris-HCl pH 7.4, 150 mM NaCl) containing 0.1% Triton X-100 (TBST). The samples were blocked using 2% bovine serum albumin (BSA) in TBST. The samples were then incubated with a phosphorylation-specific antibody against histone 3 (phospho H3) serine-10 (Upstate, 1:500-1:1000) in blocking solution. Cells can also optionally be stained for tubulin as well using appropriate antibodies. After a 2-hr. incubation at room temperature (or 4° C. overnight), the samples were washed 3× with TBST. The samples were then incubated with an appropriate secondary antibody in blocking solution for 1-2 hrs at room temperature (or 4° C. overnight). […] The samples were washed 3× with TBST and mounted onto glass slides using Prolong Gold Antifade Reagent (Invitrogen). See FIGS. 2 and 3. *Hela/U2OS medium—Dulbecco's Modified Eagle's Medium (DMEM, Sigma), 10% fetal bovine serum, 1% penicillin/streptomycin
# Chain of Plk1 (P53350 whole entry): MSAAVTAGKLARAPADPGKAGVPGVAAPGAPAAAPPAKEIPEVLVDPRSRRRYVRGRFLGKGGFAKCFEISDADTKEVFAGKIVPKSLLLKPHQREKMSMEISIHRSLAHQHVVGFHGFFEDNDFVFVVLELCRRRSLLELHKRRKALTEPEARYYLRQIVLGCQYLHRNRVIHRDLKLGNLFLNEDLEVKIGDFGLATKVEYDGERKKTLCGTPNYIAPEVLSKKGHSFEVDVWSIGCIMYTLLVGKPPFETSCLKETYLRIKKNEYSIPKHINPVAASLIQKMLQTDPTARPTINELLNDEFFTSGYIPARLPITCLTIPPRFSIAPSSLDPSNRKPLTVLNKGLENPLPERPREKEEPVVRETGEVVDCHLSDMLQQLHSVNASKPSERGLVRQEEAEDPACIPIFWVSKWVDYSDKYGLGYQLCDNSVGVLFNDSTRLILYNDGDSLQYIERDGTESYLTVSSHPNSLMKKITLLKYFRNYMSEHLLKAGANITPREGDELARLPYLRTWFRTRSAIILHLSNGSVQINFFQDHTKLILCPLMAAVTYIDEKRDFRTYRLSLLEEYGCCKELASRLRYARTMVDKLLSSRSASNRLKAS
row,SMILES,mitotic arrest (phospho H3 positivity)
1,COc1cc(C(=O)NC2CCN(C)CC2)ccc1Nc1ncc2c(n1)N(C1CCCC1)C(C)CC(=O)N2C (stereo not drawn) [Compound I-4],induce a strong mitotic arrest
2,COc1cc(C(=O)NC2CCN(C)CC2)ccc1Nc1ncc2c(n1)N(C1CCCC1)CC(C)C(=O)N2C (stereo not drawn) [Compound I-5],induce a strong mitotic arrest
3,COc1cc(N2CCC(O)CC2)ccc1Nc1ncc2c(n1)N(C1CCCC1)CCC(=O)N2C [Compound I-6],do not
4,COc1cc(N(C)CCO)ccc1Nc1ncc2c(n1)N(C1CCCC1)CCC(=O)N2C [Compound I-7],do not
5,COc1cc(N(C)CCCO)ccc1Nc1ncc2c(n1)N(C1CCCC1)CCC(=O)N2C [Compound I-8],do not
